Values quoted from earlier work as cited in paper PMC10046020, “In Silico Screening and Optimization of Cell-Penetrating Peptides Using Deep Learning Methods” (Biomolecules, 2023).

Conditions: Spreadsheet S1: 150 CPP and 150 non-CPP peptides collected from CellPPD, MLCPP, CPPsite 2.0, Lifetein and other publications; cited from earlier work
From the text: Supplement biomolecules-13-00522-s001.zip/biomolecules-2162660_Supplementary Spreadsheets S1 Test Set.csv, table | column: class || Supplement biomolecules-13-00522-s001.zip/biomolecules-2162660_Supplementary Spreadsheets S2 Train Set.csv, table | column: class

Row | Sequence | class (CPP / Non-CPP), Test Set
1 | ICITRRSICMVTCNKEWPQNRNAHTFLI | Non-CPP
2 | FLPLFLPKIICVITKKC | Non-CPP
3 | FITKALGISYGRKKRRQS | Non-CPP
4 | PPPPPPPPPPPLRR | CPP
5 | IAARIKLRSRQYIKLRHL | Non-CPP
6 | ARRCSGSGSGCGSGSGSCGRR | CPP
7 | RRRRRRRRRETWWETWWTEW | CPP
8 | ARRRRCSGSGSGCGSGSGSCGRRRR | CPP
9 | EILLPNNYNAYESYKYPGMFIALSK | Non-CPP
10 | MNASQVAGEEAPQSGHSVKVVLVGDGGCGKTSLMMVF | Non-CPP
11 | EILLPNSYNAYESYKYPGMFIALSK | Non-CPP
12 | ELVVLGKLYGRKKRRQRRR | CPP
13 | ACRGRGRGCGRGRGRCG | CPP
14 | IDLNITMLEDHEFVP | Non-CPP
15 | YGRKKRRQRRTALDWSWLQTE | CPP
16 | SHMMGEFWGDEDMCYRHQRSYET | Non-CPP
17 | YMVGLCDYHILYSGWGQMDWHPEPHFYAWMYR | Non-CPP
18 | SRISNRLSSSATRT | Non-CPP
19 | ACSGRGSGCGSGRGSCG | CPP
20 | GWTNLSAGYLLGPPPGFSPFR | Non-CPP
21 | TRTSRGWHTTDLKYN | Non-CPP
22 | LLIILRRPIRKQAHAHSK | CPP
23 | RHHLRHLRRHLRHLLRHLRHHLRHLRRHLRHLL | CPP
24 | GHHSLKITDDPFDVPFPINDDHDS | Non-CPP
25 | FLAGLIGGLAKML | Non-CPP

Row | Sequence | class (CPP / Non-CPP), Test Set
26 | RLRLRLRLRLRLRLRLKLLKLLKLLKLLKKKKKKKGYK | CPP
27 | QAHVHVWHKYSVKTVYH | Non-CPP
28 | NAGGWFSSWFFSNTANEDQDDMLPSTSAAAGETNYARN | Non-CPP
29 | GRKKRRQRRRG | CPP
30 | YGFMELFDDVTAIFSIDHCQEEYYEQMANNVM | Non-CPP
31 | SWFASTGGRDSKIDVWSLVP | Non-CPP
32 | FITKALGISYGRKWRRQC | Non-CPP
33 | HSDGIFTDSYSRYRKQMAVKKYLAAVLGKRYKQRVKNK | CPP
34 | HDEFERHAEGEFTSDVSSYLEGQAAKEFIAWLVKGR | Non-CPP
35 | AEQNPIYWARYADWLFTTPLLLLDLALLVDADEGT | CPP
36 | ACRDRFRRCPADRRLCG | CPP
37 | LKKLLKLLKKLLKLAG | CPP
38 | KLAKLAKKLAKLAKGGRRRRRRR | CPP
39 | AGCKNFFWKMFTSC | Non-CPP
40 | CRKKRRQRRR | CPP
41 | STGKANKITITNDKGRLSK | CPP
42 | FLSFLLGPLIDLISKG | Non-CPP
43 | CVCVKTTSLVRPRHI | Non-CPP
44 | LKKLAELAHKLLKLG | CPP
45 | KGRKKRRQRRRPPQ | CPP
46 | NWVTMKDSADSIDHECPRYFDTCERSCKISE | Non-CPP
47 | KALKKLLAKWAAAKALL | CPP
48 | WELVVLGYGRKKRRQRRR | CPP
49 | KDCERRFSRSDQLKRHQRRHTGVKPFQK | CPP
50 | DFDMLRCMLGRVYYPCWQV | Non-CPP

Row | Sequence | class (CPP / Non-CPP), Test Set
51 | SDPSVPLRPEEDELIDQ | Non-CPP
52 | FQAYPCITAYKVMYID | Non-CPP
53 | ARRRRCSDRFRNCPADEALCGRRRR | CPP
54 | FFLIPKGRRRRRRRRR | CPP
55 | LLATTALLKTTALLKTTA | Non-CPP
56 | CCTGRKKRRQRRR | CPP
57 | KLAKLAKKLAKLAK | CPP
58 | DWLKAFYDKVAEKLKEAF | CPP
59 | LIRLWSHLIHIWFQNRRLKWKKKC | CPP
60 | FTFGGGYVYFEEYAY | Non-CPP
61 | TERQIKIWFQNRCMK | Non-CPP
62 | KKLSLCLKRIGDELDS | Non-CPP
63 | RKKRRQRRRGKKKKKKKKKKKKKKKGRKKRRQRRR | CPP
64 | GWTLNSAGYLNGKFLPLILRKIVTAL | Non-CPP
65 | ACSGSGSGCGSGSGSCGRRRRRRRR | CPP
66 | KMTRAQRRAAARRNRWTAR | CPP
67 | GRKKHRQPPQC | Non-CPP
68 | PLGPVVHKCCPGFGGLQWLPLLWNWYQNMWGN | Non-CPP
69 | KKRTLRKNDRKKRC | CPP
70 | CVKLNDGHFMPVLGFGTYAPPEVPRSKALEVTKLA | Non-CPP
71 | GLRKRLRKFRNKIKEKGLRKRLRKFRNKIKEK | CPP
72 | LALALALALALALAKLAKLAKLAKLAKIKKIKKKIK | CPP
73 | AVNANFGWQDKRFSTFG | Non-CPP
74 | LILIGRRRRRRRRGC | CPP
